Test [1] relates to E. coli MG1655. Briefly: Effect of added compounds on uptake of biotinylated peptide (competition / block). Format: cell-based, Escherichia coli. As to conditions: 31 amino acid peptide, sampled after 10 minutes. The method, then:
(§1) Uptake assays. Minimal 37° C. overnights were diluted into fresh minimal media and incubated at 37° C. until they reached an OD550 of 0.5. The 10 and 31 amino acid randomized biotinylated peptides were added to the media at a concentration of 1 μg per mL of culture. After addition of the peptide to the culture, 1 mL aliquots were extracted at time intervals up to an hour, washed twice of extracellular peptide using fresh minimal media, then boiled with SDS-PAGE gradient sample buffer. Samples were run on a 10-16% tricine gradient gel (Schägger et al., 1987, Anal. Biochem. 166:368-379) and transferred to nitrocellulose membranes. The resulting Western blots were treated with NeutrAvidin Horseradish Peroxidase Conjugate and SuperSignal West Dura Extended Duration Chemiluminescent Substrate. The membranes were incubated for 5-10 minutes then exposed to X-ray film for 1-10 minutes. Bands on the film were quantified using the AlphaEase 5.5 Densitometry ProGram from Alpha Innotech.
(§2) One mL samples were extracted 10 minutes after the addition of the peptide and analyzed by SDS PAGE as previously described.

The test system of test [2] is S. aureus. Briefly: Effect of added biotin on uptake of biotinylated peptide (competition). Format: cell-based, Staphylococcus aureus. To be noted: 31 amino acid peptide; equimolar or 10× equimolar amounts, added five minutes before peptide. The method, then:
as §1, §2

The mark [3] stands for this setting: equimolar or 10× equimolar amounts, added five minutes before peptide.

Regarding `N#CC(C#N)=NNc1cccc(Cl)c1` [CCCP, carbonyl cyanide m-chlorophenylhydrazone], the “effect on uptake of biotinylated peptide in E. coli” value (“effect on uptake … in E. coli” below) in test [1] (CCCP 50 μM added prior to peptide) is “uptake is blocked”.

In the case of `Cc1ncc(C[n+]2csc(CCO)c2C)c(N)n1` [thiamine], the “effect on uptake … in E. coli” value in test [1] (setting [3]) was “no effect”.

As to `O=C(O)CCCC[C@@H]1SC[C@@H]2NC(=O)N[C@@H]21` [biotin], in test [1] (setting [3]), the “effect on uptake … in E. coli” value was “could be blocked”. Besides, the “effect on uptake of biotinylated peptide in S. aureus” value in test [2] was “no effect”.

Turning to “bovine serum albumin: similarly sized protein used as control”, the “effect on uptake … in E. coli” value in test [1] (setting [3]) was “no effect”.

As to “avidin: protein known to tightly bind biotin, purchased from Sigma”, the “effect on uptake … in E. coli” value in test [1] (setting [3]) is “could competitively inhibit”.

The record behind these values is patent US7601511B2, “Biotin-facilitated transport in gram negative bacteria” (priority 2003, dated 2009).
